In paper PMC7026418, “The kinase polypharmacology landscape of clinical PARP inhibitors” (Scientific Reports, 2020):
Read-outs that look alike come from different tables or passages of the source. Blank lines part the entries; values can stand above or below the compound they belong to.

Columns and labels:
Assay in all cases: biochemical
Design in all cases: DiscoveRx KINOMEscan active site-directed competition binding; percent of control kinase bound to immobilised ligand
TRPM6 = TRPM6 (Homo sapiens, UniProt Q9BX84)
Sequence of TRPM6 (Q9BX84 whole entry): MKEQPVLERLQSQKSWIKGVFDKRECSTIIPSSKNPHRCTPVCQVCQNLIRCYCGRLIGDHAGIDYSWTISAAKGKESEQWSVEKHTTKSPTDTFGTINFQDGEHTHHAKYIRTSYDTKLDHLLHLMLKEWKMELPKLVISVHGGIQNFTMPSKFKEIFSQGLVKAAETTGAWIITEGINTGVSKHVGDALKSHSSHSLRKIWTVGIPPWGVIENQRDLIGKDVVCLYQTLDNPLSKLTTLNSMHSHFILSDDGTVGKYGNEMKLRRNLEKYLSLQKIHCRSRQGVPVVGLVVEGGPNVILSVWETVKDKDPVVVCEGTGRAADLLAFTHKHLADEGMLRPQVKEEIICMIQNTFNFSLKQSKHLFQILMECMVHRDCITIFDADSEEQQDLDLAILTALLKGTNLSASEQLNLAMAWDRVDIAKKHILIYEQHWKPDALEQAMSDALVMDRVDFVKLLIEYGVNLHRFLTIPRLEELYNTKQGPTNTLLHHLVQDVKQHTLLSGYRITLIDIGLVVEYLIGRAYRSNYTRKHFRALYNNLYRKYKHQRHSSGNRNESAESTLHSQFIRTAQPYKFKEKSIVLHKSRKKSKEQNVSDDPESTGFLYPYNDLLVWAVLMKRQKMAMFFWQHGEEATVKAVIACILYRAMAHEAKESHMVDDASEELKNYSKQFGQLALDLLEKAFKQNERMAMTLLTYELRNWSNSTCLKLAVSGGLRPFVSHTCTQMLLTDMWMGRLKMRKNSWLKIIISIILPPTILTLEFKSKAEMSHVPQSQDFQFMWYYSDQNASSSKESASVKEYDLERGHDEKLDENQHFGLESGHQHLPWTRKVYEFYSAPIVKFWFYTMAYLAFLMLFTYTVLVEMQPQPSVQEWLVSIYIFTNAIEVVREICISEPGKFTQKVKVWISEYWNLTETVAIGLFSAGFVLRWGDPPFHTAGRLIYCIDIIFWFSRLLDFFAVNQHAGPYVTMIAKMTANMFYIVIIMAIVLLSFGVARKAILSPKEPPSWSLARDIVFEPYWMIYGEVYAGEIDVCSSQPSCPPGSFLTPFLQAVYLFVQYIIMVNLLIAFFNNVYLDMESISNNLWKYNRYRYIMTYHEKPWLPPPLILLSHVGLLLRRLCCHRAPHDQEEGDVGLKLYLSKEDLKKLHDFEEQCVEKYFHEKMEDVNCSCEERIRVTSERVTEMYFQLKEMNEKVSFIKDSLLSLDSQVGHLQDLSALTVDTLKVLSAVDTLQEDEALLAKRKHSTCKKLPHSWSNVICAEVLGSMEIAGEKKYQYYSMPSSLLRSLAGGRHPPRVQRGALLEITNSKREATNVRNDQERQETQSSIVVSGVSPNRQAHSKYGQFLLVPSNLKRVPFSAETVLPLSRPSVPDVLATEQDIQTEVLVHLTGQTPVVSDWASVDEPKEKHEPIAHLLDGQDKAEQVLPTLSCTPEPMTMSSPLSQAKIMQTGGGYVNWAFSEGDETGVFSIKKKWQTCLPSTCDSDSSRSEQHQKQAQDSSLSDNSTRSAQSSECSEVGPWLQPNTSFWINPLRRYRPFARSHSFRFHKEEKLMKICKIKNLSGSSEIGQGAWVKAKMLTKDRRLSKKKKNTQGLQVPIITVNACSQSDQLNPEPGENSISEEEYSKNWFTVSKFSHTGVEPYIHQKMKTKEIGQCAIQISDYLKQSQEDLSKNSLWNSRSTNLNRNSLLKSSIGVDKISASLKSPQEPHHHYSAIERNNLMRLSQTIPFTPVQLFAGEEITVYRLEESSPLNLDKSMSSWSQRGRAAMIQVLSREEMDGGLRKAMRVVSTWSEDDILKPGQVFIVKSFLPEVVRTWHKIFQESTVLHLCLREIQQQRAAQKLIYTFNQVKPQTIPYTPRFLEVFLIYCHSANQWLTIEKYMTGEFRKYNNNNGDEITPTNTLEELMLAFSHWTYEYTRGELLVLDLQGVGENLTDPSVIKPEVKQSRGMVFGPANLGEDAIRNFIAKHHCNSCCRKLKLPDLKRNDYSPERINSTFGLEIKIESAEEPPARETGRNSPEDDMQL

BRSK1 = target: T1, BRSK1 (Homo sapiens, UniProt Q8TDC3)
T1 sequence (Q8TDC3 1-778): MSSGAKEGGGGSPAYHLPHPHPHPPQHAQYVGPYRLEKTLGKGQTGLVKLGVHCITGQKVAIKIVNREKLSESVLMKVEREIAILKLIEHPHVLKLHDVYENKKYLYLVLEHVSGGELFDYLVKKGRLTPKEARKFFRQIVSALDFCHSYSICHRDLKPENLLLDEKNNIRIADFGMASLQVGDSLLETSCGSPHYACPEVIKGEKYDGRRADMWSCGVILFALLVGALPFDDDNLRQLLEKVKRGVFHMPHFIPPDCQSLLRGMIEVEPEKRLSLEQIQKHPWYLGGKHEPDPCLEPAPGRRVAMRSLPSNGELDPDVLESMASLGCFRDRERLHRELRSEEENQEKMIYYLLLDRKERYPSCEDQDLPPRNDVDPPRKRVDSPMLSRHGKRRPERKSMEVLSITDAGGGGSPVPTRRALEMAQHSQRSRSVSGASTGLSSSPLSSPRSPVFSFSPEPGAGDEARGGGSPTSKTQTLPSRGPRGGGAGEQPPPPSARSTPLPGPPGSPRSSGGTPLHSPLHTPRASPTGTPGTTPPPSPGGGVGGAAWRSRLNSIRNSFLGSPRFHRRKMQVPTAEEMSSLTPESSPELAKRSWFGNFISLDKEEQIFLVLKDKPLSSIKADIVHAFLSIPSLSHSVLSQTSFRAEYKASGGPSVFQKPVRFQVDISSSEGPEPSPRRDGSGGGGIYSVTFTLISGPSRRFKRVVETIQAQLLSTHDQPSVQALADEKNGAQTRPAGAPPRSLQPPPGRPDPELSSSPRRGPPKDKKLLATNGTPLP

ADCK4 = target: T2, ADCK4 (Homo sapiens, UniProt Q96D53)
T2 construct: gene COQ8B
T2 sequence (Q96D53 1-544): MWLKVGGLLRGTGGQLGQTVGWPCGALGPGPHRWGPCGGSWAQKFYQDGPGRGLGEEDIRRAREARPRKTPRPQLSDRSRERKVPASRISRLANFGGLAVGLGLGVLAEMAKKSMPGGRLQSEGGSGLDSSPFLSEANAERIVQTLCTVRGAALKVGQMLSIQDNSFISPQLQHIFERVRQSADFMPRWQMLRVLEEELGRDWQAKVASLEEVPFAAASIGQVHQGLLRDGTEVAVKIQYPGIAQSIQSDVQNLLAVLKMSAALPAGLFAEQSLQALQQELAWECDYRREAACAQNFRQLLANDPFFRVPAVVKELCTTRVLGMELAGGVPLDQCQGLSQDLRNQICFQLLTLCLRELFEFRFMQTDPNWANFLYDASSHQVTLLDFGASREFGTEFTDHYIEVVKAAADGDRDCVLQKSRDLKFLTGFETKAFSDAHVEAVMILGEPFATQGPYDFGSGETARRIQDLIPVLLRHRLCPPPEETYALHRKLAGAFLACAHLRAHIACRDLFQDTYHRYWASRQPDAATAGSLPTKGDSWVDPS

NEK1 = target: T3, NEK1 (Homo sapiens, UniProt Q96PY6)
T3 sequence (Q96PY6 1-1258): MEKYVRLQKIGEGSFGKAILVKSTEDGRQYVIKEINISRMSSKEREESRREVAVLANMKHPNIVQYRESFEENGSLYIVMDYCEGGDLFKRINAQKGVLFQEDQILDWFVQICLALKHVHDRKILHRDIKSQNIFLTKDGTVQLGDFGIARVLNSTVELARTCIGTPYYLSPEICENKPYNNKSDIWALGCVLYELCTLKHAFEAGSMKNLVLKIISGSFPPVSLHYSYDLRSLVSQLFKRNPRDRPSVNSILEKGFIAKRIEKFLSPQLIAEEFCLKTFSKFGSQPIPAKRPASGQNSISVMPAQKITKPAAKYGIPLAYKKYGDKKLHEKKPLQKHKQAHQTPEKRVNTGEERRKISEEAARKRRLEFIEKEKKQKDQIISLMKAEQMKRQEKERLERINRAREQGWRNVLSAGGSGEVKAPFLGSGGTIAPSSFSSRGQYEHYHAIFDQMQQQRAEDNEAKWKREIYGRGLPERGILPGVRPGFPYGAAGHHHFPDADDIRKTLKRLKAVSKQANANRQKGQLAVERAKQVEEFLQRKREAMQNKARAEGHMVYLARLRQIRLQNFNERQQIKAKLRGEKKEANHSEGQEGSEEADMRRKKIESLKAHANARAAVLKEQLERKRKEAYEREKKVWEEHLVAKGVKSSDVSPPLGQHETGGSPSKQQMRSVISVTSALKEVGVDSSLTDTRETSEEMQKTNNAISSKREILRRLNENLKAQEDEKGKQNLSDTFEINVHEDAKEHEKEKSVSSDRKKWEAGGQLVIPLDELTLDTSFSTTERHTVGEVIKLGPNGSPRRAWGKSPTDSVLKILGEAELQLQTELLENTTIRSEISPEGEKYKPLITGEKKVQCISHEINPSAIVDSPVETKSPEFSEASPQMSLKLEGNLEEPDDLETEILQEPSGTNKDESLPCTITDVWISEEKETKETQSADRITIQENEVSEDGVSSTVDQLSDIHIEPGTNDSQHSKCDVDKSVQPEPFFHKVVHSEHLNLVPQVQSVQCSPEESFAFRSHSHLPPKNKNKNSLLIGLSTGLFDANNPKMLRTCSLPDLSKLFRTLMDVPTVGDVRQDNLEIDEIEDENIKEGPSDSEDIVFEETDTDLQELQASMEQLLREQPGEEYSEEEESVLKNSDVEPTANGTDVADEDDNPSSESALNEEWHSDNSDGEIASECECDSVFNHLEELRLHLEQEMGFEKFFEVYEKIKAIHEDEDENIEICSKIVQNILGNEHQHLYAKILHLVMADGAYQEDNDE

ROS1 = ROS1 (Homo sapiens, UniProt P08922)
Sequence of ROS1 (P08922 whole entry): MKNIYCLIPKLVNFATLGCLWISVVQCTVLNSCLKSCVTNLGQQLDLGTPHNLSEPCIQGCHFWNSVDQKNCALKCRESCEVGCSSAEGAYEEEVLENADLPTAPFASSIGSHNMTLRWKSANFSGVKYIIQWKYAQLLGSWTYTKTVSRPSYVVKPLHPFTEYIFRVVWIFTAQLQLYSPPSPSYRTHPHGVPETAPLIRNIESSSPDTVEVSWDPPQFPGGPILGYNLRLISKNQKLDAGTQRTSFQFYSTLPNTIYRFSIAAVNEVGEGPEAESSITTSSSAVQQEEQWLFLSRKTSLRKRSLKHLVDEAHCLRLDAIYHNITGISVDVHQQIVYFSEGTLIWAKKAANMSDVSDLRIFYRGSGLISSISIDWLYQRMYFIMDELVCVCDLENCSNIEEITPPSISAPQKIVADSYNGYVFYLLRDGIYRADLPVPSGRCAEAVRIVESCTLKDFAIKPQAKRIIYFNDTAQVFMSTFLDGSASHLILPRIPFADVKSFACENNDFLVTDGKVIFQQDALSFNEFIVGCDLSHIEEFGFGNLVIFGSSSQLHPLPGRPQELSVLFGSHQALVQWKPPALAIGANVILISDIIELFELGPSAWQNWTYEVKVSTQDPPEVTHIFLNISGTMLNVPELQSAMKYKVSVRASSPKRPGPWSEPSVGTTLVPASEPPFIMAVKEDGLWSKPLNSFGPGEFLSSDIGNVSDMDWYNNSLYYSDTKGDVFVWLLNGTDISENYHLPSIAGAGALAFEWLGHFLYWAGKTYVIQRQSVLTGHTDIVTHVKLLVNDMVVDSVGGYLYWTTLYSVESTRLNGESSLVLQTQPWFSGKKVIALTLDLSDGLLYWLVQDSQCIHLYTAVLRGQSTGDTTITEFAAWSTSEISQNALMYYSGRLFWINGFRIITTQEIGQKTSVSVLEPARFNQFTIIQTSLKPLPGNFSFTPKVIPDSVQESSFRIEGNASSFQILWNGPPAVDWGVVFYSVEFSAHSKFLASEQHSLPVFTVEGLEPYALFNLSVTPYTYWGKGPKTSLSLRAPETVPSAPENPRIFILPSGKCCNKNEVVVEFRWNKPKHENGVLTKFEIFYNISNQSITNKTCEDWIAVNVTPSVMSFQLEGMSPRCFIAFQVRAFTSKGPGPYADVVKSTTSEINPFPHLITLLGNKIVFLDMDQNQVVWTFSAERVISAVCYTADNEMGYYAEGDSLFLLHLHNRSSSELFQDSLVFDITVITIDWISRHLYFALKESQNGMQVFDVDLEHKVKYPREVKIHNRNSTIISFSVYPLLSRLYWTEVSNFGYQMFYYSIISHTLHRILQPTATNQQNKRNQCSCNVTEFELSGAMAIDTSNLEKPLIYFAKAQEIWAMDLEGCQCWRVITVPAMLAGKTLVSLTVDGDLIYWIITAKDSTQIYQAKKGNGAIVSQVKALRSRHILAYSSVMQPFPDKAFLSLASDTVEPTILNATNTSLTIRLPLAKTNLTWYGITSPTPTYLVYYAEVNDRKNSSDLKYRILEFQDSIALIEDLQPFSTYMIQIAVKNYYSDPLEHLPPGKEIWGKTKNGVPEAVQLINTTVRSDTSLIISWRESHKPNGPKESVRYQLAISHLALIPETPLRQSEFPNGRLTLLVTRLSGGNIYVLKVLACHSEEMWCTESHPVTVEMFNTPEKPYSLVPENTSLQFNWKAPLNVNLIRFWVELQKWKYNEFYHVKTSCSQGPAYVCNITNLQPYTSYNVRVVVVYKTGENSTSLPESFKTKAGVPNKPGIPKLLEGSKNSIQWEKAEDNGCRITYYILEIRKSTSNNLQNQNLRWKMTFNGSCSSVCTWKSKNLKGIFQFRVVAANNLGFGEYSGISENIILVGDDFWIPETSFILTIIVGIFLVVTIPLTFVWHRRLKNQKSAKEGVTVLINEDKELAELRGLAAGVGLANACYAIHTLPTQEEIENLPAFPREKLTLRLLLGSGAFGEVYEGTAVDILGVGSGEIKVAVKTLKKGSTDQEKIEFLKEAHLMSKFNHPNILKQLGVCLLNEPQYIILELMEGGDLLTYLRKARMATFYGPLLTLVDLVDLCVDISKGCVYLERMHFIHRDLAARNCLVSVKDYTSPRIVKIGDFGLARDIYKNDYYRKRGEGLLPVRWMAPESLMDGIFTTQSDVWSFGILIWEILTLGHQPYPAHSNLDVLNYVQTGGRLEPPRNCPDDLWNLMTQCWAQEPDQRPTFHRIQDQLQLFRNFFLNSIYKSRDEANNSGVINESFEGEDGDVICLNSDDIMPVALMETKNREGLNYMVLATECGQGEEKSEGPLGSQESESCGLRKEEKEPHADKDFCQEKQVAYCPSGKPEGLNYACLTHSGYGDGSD

[1] = read-out: Olaparib / %Ctrl @ 10000nM
[2] = read-out: Talazoparib (BMN 673) / %Ctrl @ 10000nM
[3] = read-out: Rucaparib / %Ctrl @ 10000nM, binding competition, % of control
[4] = read-out: Niraparib (MK-4827) / %Ctrl @ 10000nM

percent of control binding at 10 µM (TRPM6; [1]): 84% | percent of control binding at 10 µM (BRSK1; [1]): 91% | percent of control binding at 10 µM (ADCK4; [1]): 97% | percent of control binding at 10 µM (NEK1; [1]): 74% | percent of control binding at 10 µM (ROS1; [1]): 97%
Compound: O=C(c1cc(Cc2n[nH]c(=O)c3ccccc23)ccc1F)N1CCN(C(=O)C2CC2)CC1 [Olaparib]

percent of control binding at 10 µM (TRPM6; [2]): 100% | percent of control binding at 10 µM (BRSK1; [2]): 100% | percent of control binding at 10 µM (ADCK4; [2]): 100% | percent of control binding at 10 µM (NEK1; [2]): 80% | percent of control binding at 10 µM (ROS1; [2]): 94%
Compound: Cn1ncnc1[C@H]1c2n[nH]c(=O)c3cc(F)cc(c23)N[C@@H]1c1ccc(F)cc1 [Talazoparib]

percent of control binding at 10 µM (TRPM6; [3]): 77% | percent of control binding at 10 µM (BRSK1; [3]): 74% | percent of control binding at 10 µM (ADCK4; [3]): 82% | percent of control binding at 10 µM (NEK1; [3]): 90% | percent of control binding at 10 µM (ROS1; [3]): 82%
Compound: CNCc1ccc(-c2[nH]c3cc(F)cc4c3c2CCNC4=O)cc1 [Rucaparib]

Compound: NC(=O)c1cccc2cn(-c3ccc([C@@H]4CCCNC4)cc3)nc12 [Niraparib]
percent of control binding at 10 µM (TRPM6; [4]): 71% | percent of control binding at 10 µM (BRSK1; [4]): 92% | percent of control binding at 10 µM (ADCK4; [4]): 100% | percent of control binding at 10 µM (NEK1; [4]): 98% | percent of control binding at 10 µM (ROS1; [4]): 80%
